Experimental data reported in PubChem BioAssay (NCI).
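Each compound was tested at five concentrations against cells in 96-well plates for 48 hours. Abbreviation: GI50, concentration required for 50% inhibition of growth. Definition used: TGI = concentration required for complete inhibition of growth.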

Tests used:
Test in all cases: growth of human tumour cells (NCI), 48 h
[1] = test system: DMS 273 small cell lung
[2] = test system: M19-MEL melanoma
[3] = test system: RPMI-8226 leukemia
[4] = test system: HOP-18 NSCLC
[5] = test system: KM20L2 colon
[6] = test system: MCF7 breast
[7] = test system: SN12K1 renal
[8] = test system: SNB-19 CNS
[9] = test system: U251 CNS
[10] = test system: OVCAR-5 ovarian
[11] = test system: HCT-116 colon
[12] = test system: DU-145 prostate
[13] = test system: T-47D breast

| Compound | TGI [1] | TGI [2] | TGI [3] | TGI [4] | TGI [5] | TGI [6] | TGI [7] | TGI [8] | TGI [9] | TGI [10] | TGI [11] | TGI [12] | TGI [13] | GI50 [3] | GI50 [6] | GI50 [12] | GI50 [8] | GI50 [9] | GI50 [13] | GI50 [11] |
| --- | --- | --- | --- | --- | --- | --- | --- | --- | --- | --- | --- | --- | --- | --- | --- | --- | --- | --- | --- | --- |
| COc1c2ccoc2c(S(=O)(=O)Nc2ccc(Cl)cc2)c2oc(C)cc(=O)c12 | > 100 µM | > 100 µM | > 100 µM | > 100 µM | > 100 µM | > 100 µM | > 100 µM | > 100 µM | > 100 µM | > 100 µM | > 89.2 µM |  |  |  |  |  |  |  |  |  |
| Cc1onc(-c2c(F)cccc2Cl)c1C(=O)N[C@@H]1C(=O)N2[C@@H]1SC(C)(C)[C@@H]2C(=O)O |  |  | > 100 µM |  |  | > 100 µM |  | > 100 µM | > 100 µM | > 100 µM | > 100 µM | > 100 µM | > 100 µM |  |  |  |  |  |  |  |
| FC(F)(F)C1=NC(=NNc2nnc(-c3ccccc3)c(-c3ccccc3)n2)N=C(C(F)(F)F)C1 | > 100 µM | > 68.4 µM | > 100 µM | > 100 µM | > 100 µM | > 100 µM | > 100 µM | > 100 µM | > 86.3 µM | > 100 µM | > 93.6 µM |  |  |  |  |  |  |  |  |  |
| O=C(/N=C/c1c(O)c2ccccc2oc1=O)NC1CCCCC1 | > 100 µM | > 100 µM | > 100 µM |  | > 100 µM |  |  | > 100 µM |  | > 100 µM | > 100 µM |  |  |  |  |  |  |  |  |  |
| CCOC(=O)[C@H]1C[C@]23CN(C(=O)OC(C)(C)C)CC[C@H]2CCC2(SCCCS2)[C@@H]3N1C |  |  | 54.4 µM |  |  | > 100 µM |  | > 100 µM | > 100 µM | > 100 µM | > 100 µM | > 100 µM | > 100 µM |  |  |  |  |  |  |  |
| OC1(c2ccc3ccccc3c2)c2ccc3ccccc3c2C2=NCCN21 (stereo unspecified) |  |  | > 100 µM |  |  | > 100 µM |  | > 100 µM | > 100 µM | > 100 µM | > 100 µM | > 100 µM | > 100 µM |  |  |  |  |  |  |  |
| Cc1ccc(S(=O)(=O)NCCSS(=O)(=O)c2ccc(C)cc2)cc1 |  |  |  |  |  | 41 µM |  | > 100 µM | 53.8 µM |  | 28.3 µM | > 100 µM | 53.9 µM |  |  |  |  |  |  |  |
| CC[N+](CC)(CC)/C(=N/S(=O)(=O)c1cc(C)c(Cl)cc1S)[N-]S(=O)(=O)c1ccc(Cl)cc1 |  |  | > 100 µM |  |  | > 100 µM |  |  | > 100 µM | > 100 µM | 65.6 µM | > 100 µM | > 100 µM |  |  |  |  |  |  |  |
| C=C1C(=O)OC2/C=C(\C)CC(O)/C=C(/CO)CC(OC(=O)/C(C)=C/C)C12 (stereo unspecified) | 82.5 µM | 92 µM | 17.4 µM | 49.7 µM | 246 µM | 68.2 µM | 76.6 µM | 353 µM | 303 µM | 297 µM | 115 µM |  |  |  |  |  |  |  |  |  |
| ClCC1(CCl)COC1 |  |  |  |  |  | > 100 µM |  | > 100 µM | > 100 µM |  | > 100 µM | > 100 µM | > 100 µM |  |  |  |  |  |  |  |
| C[C@H](O)C(=O)SC[C@H](NC(=O)CC[C@@H](N)C(=O)O)C(=O)NCC(=O)O | > 100 µM | > 100 µM | > 100 µM |  | > 100 µM |  |  |  | > 100 µM | > 100 µM | > 100 µM |  |  |  |  |  |  |  |  |  |
| CCCc1ccc(OCC(=O)N/N=C/c2c(-c3ccccc3)[nH]c3ccccc23)cc1 |  |  | 30.7 µM |  |  | 54.3 µM |  | > 100 µM | 20.3 µM | 58.6 µM | 27.7 µM | > 100 µM | 52.4 µM |  |  |  |  |  |  |  |
| CCOc1cc(NC(C)=O)ccc1C(=O)NN1C(=O)CSC1c1ccc(O)c(OC)c1 (stereo unspecified) |  |  | > 100 µM |  |  | > 100 µM |  | > 100 µM |  | > 100 µM | > 100 µM | > 100 µM | > 100 µM |  |  |  |  |  |  |  |
| CN(C)CCC(C(=O)C(C)(C)C)c1ccccn1 (stereo unspecified) |  |  | > 100 µM |  |  | > 100 µM |  | > 100 µM | > 100 µM | > 100 µM | > 100 µM | > 100 µM | > 100 µM |  |  |  |  |  |  |  |
| C[C@]12CC[C@H](O)CC1=CC[C@@H]1[C@@H]2CC[C@]2(C)C(=O)CC[C@@H]12 |  |  | > 100 µM |  |  | > 100 µM |  | > 100 µM | > 100 µM | > 100 µM | > 100 µM | > 100 µM | > 100 µM |  |  |  |  |  |  |  |
| C=CCC1=CC2(OC)C(=O)C(OC)(OC)C1C1C(OC)(OC)C(=O)C(OC)=CC12CC=C (stereo unspecified) |  |  | > 100 µM |  |  | > 100 µM |  | > 100 µM | > 100 µM | > 100 µM | > 100 µM | > 100 µM | > 100 µM |  |  |  |  |  |  |  |
| CO[C@]12C[C@H](CNC(=O)c3cc(Br)c(Br)[nH]3)O[C@H]1NC(=O)N2 |  |  | > 100 µM |  |  | > 100 µM |  | > 100 µM | > 100 µM | > 100 µM | > 100 µM | > 100 µM | > 100 µM |  |  |  |  |  |  |  |
| CC(O)=NC(Cc1ccc2ccccc2c1)C(O)=NC(Cc1ccc(Cl)cc1)C(O)=NC(Cc1c[nH]c2ccccc12)C(O)=NC(CO)C(O)=NC(Cc1ccc(O)cc1)C(O)=NC(CCCN=C(N)N)C(O)=NC(CC(C)C)C(O)=NC(CCCN=C(N)N)C(=O)N1CCCC1C(O)=NC(C)C(=N)O (stereo unspecified) |  |  | > 100 µM |  |  | > 100 µM |  | > 100 µM | 61.4 µM | > 100 µM |  | > 100 µM |  |  |  |  |  |  |  |  |
| NC(N)=N/N=C/c1ccc(O)c(C(=O)O)c1 |  |  | > 100 µM |  |  | > 100 µM |  | > 100 µM | > 100 µM | > 100 µM | > 100 µM | > 100 µM | > 100 µM |  |  |  |  |  |  |  |
| COc1ccc(-n2cc(-c3ccc(OC)c(OC)c3)nc2SCc2ccccc2)cc1Cl |  |  | 20 µM |  |  | > 100 µM |  | > 100 µM | > 100 µM |  | > 100 µM | > 100 µM | > 100 µM | 4.38 µM | 24 µM | 27.6 µM | 32.5 µM | 22.4 µM | 9.45 µM | 9.43 µM |
| COc1cc(NCc2ccc3n2-c2ccccc2OC3)cc(OC)c1OC |  |  | 26.9 µM |  |  | 40.6 µM |  | > 100 µM | > 100 µM | > 100 µM | > 100 µM | > 100 µM | > 100 µM |  |  |  |  |  |  |  |
| Oc1ccc2ccccc2c1Cc1c(O)ccc2ccccc12 |  |  | 40.4 µM |  |  | 53.9 µM |  | 36.7 µM | 34.4 µM | 33.2 µM | 34.4 µM | 38.1 µM | 56.4 µM |  |  |  |  |  |  |  |
